Format in all cases: in vivo
In assay [1] the test system is Alopecurus myosuroides (ALOMY). Briefly: Test Example 1 pre-emergence herbicidal activity. Particulars: Alopecurus myosuroides, 480 h, rate 250 g/ha, evaluated 20 days later, read-out: Pre-emergence activity ALOMY (100=total damage to plant; 0=no damage to plant). How it is done:
(§1) Monocotyledonous and dicotyledonous test plants were sown in standard soil in pots. After cultivation for one day (pre-emergence) or after 10 days cultivation (post-emergence) under controlled conditions in a glasshouse, the plants were sprayed with an aqueous spray solution derived from the formulation of the technical active ingredient in 0.6 ml acetone and 45 ml formulation solution containing 10.6% Emulsogen EL (Registry number 61791-12-6), 42.2% N-methylpyrrolidone, 42.2% dipropylene glycol monomethyl ether (Registry number 34590-94-8) and 0.2% X-77 (Registry number 11097-66-8). The test plants were then grown in a greenhouse under optimum conditions until, 15 days later for post-emergence and 20 days for pre-emergence, the test was evaluated (100=total damage to plant; 0=no damage to plant).
(§2) Alopecurus myosuroides (ALOMY), Avena fatua (AVEFA), Lolium perenne (LOLPE), Setaria faberi (SETFA), Digitaria sanguinalis (DIGSA), Echinochloa crus-galli (ECHCG)

For assay [2], the system named is Avena fatua (AVEFA). Briefly: Test Example 1 pre-emergence herbicidal activity. Particulars: Avena fatua, 480 h, rate 250 g/ha, evaluated 20 days later, read-out: Pre-emergence activity AVEFA (100=total damage to plant; 0=no damage to plant). How it is done: as §1, §2
Assay [3] deals with Digitaria sanguinalis (DIGSA). Briefly: Test Example 1 pre-emergence herbicidal activity. The following applies: Digitaria sanguinalis, 480 h, rate 250 g/ha, evaluated 20 days later, read-out: Pre-emergence activity DIGSA (100=total damage to plant; 0=no damage to plant). How it is done: as §1, §2
For assay [4], the system named is Echinochloa crus-galli (ECHCG). Briefly: Test Example 1 pre-emergence herbicidal activity. Particulars: Echinochloa crus-galli, 480 h, rate 250 g/ha, evaluated 20 days later, read-out: Pre-emergence activity ECHCG (100=total damage to plant; 0=no damage to plant). How it is done: as §1, §2
Assay [5] deals with Lolium perenne (LOLPE). Briefly: Test Example 1 pre-emergence herbicidal activity. The following applies: Lolium perenne, 480 h, rate 250 g/ha, evaluated 20 days later, read-out: Pre-emergence activity LOLPE (100=total damage to plant; 0=no damage to plant). How it is done: as §1, §2
In assay [6] the test system is Setaria faberi (SETFA). Briefly: Test Example 1 pre-emergence herbicidal activity. Particulars: Setaria faberi, 480 h, rate 250 g/ha, evaluated 20 days later, read-out: Pre-emergence activity SETFA (100=total damage to plant; 0=no damage to plant). How it is done: as §1, §2
In assay [7] the test system is Alopecurus myosuroides (ALOMY). Briefly: Test Example 1 post-emergence herbicidal activity. Particulars: 360 h, rate 125 g/ha, evaluated 15 days later, read-out: Post-emergence activity ALOMY (100=total damage to plant; 0=no damage to plant). How it is done: as §1, §2
The test system of assay [8] is Avena fatua (AVEFA). Briefly: Test Example 1 post-emergence herbicidal activity. The following applies: 360 h, rate 125 g/ha, evaluated 15 days later, read-out: Post-emergence activity AVEFA (100=total damage to plant; 0=no damage to plant). How it is done:
as §1, §2

Assay [9] deals with Digitaria sanguinalis (DIGSA). Briefly: Test Example 1 post-emergence herbicidal activity. Particulars: 360 h, rate 125 g/ha, evaluated 15 days later, read-out: Post-emergence activity DIGSA (100=total damage to plant; 0=no damage to plant). How it is done: as §1, §2
In assay [10] the test system is Echinochloa crus-galli (ECHCG). Briefly: Test Example 1 post-emergence herbicidal activity. The following applies: 360 h, rate 125 g/ha, evaluated 15 days later, read-out: Post-emergence activity ECHCG (100=total damage to plant; 0=no damage to plant). How it is done:
as §1, §2

The subject of assay [11] is Lolium perenne (LOLPE). Briefly: Test Example 1 post-emergence herbicidal activity. Particulars: 360 h, rate 125 g/ha, evaluated 15 days later, read-out: Post-emergence activity LOLPE (100=total damage to plant; 0=no damage to plant). How it is done:
as §1, §2

In assay [12] the test system is Setaria faberi (SETFA). Briefly: Test Example 1 post-emergence herbicidal activity. The following applies: 360 h, rate 125 g/ha, evaluated 15 days later, read-out: Post-emergence activity SETFA (100=total damage to plant; 0=no damage to plant). How it is done: as §1, §2

The text below walks through data of US8754242B2, “Herbicides” (Syngenta Crop Protection LLC, priority 2007, dated 2014).

For the compound `C#CCOC(=O)OC1=C(c2c(C)cc(C)cc2C)C(=O)[C@@H]2[C@H]1[C@@]1(C)CC[C@]2(C)O1` (racemic) [Example P36], the pest or weed control at 250 g/ha in assay [1] is 70%; in the assay on Avena fatua (AVEFA) [2] it was 80%; in [3], 80%; in assay [4] it was 100%; in the assay on Lolium perenne (LOLPE) [5], 100%; in the assay on Setaria faberi (SETFA) [6], 80%. In addition, the pest or weed control at 125 g/ha turned out to be 60% in [7]; 70% in the assay on Avena fatua (AVEFA) [8]; 80% in [9]; 90% in assay [10]; 60% in the assay with Lolium perenne (LOLPE) [11]; 80% in the assay on Setaria faberi (SETFA) [12].

As for `CCC(=O)OC[C@]12C=C[C@H](O1)[C@@H]1C(=O)C(c3c(C)cc(C)cc3C)=C(O)[C@@H]12` [Example T59], the pest or weed control at 250 g/ha in assay [1] was found to be 10%; with Avena fatua (AVEFA) [2], 20%; in [3], 50%; in assay [4], 30%; in the assay on Lolium perenne (LOLPE) [5], 30%; in the assay with Setaria faberi (SETFA) [6], 40%. Further, the pest or weed control at 125 g/ha in [7] came out at 50%; in the assay on Avena fatua (AVEFA) [8] it was 40%; in assay [9] it was 80%; in assay [10], 80%; in the assay with Lolium perenne (LOLPE) [11] it was 0%; with Setaria faberi (SETFA) [12], 70%.

`Cc1cc(C)c(C2=C(O)[C@@H]3[C@@H]4O[C@@H](C[C@H]4c4ccc(F)cc4)[C@@H]3C2=O)c(C)c1` (racemic) [Example T70]: the pest or weed control at 250 g/ha in [1] amounted to 80%; with Avena fatua (AVEFA) [2], 50%; in assay [3], 90%; in assay [4], 100%; with Lolium perenne (LOLPE) [5], 100%; with Setaria faberi (SETFA) [6] it was 90%. Further, the pest or weed control at 125 g/ha in assay [7] worked out at 90%; in the assay on Avena fatua (AVEFA) [8], 70%; in assay [9] it was 70%; in [10], 80%; in the assay on Lolium perenne (LOLPE) [11], 70%; in the assay with Setaria faberi (SETFA) [12], 70%.

Turning to `Cc1cc(C)c(C2=C(O)[C@@H]3[C@@H]4O[C@@H](C[C@H]4c4ccc(C(F)(F)F)cn4)[C@@H]3C2=O)c(C)c1` (racemic) [Example T200], the pest or weed control at 250 g/ha in assay [1] worked out at 0%; in the assay on Avena fatua (AVEFA) [2], 0%; in assay [3] it was 70%; in assay [4], 90%; in the assay with Lolium perenne (LOLPE) [5] it was 70%; with Setaria faberi (SETFA) [6] it was 70%. Moreover, the pest or weed control at 125 g/ha in assay [7] was 70%; in the assay on Avena fatua (AVEFA) [8] it was 80%; in assay [9], 100%; in assay [10] it was 100%; in the assay on Lolium perenne (LOLPE) [11] it was 80%; in the assay on Setaria faberi (SETFA) [12] it was 100%.

Consider `Cc1cc(C)c(C2=C(OC(=O)C(C)C)[C@H]3[C@@H](C2=O)[C@@H]2CC[C@H]3O2)c(C)c1` [Example P10], for which the pest or weed control at 250 g/ha in [1] came out at 100%; in the assay on Avena fatua (AVEFA) [2] it was 100%; in assay [3] it was 100%; in assay [4], 100%; in the assay on Lolium perenne (LOLPE) [5], 100%; with Setaria faberi (SETFA) [6], 80%. Besides, the pest or weed control at 125 g/ha turned out to be 100% in [7]; 90% in the assay with Avena fatua (AVEFA) [8]; 80% in assay [9]; 100% in assay [10]; 100% in the assay with Lolium perenne (LOLPE) [11]; 80% in the assay on Setaria faberi (SETFA) [12].
